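In this assay, cells in 96-well plates receive the compound at five concentrations for 48 hours. Endpoints are linearly interpolated between the surrounding concentrations. The concentration for full growth arrest is given as TGI.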
Experiments:
Assay in all cases: inhibition of tumour cell growth, NCI panel, 48 h
DU-145 prostate = tested on: DU-145 prostate
HS 578T breast = tested on: HS 578T breast
NCI-H460 lung = tested on: NCI-H460 lung
HT29 colon = tested on: HT29 colon
SF-268 CNS = tested on: SF-268 CNS
SK-MEL-2 melanoma = tested on: SK-MEL-2 melanoma
HL-60(TB) leukemia = tested on: HL-60(TB) leukemia
LOX IMVI melanoma = tested on: LOX IMVI melanoma
HOP-62 NSCLC = tested on: HOP-62 NSCLC
MDA-MB-435 = tested on: MDA-MB-435
SW-620 colon = tested on: SW-620 colon
786-0 renal = tested on: 786-0 renal
RPMI-8226 leukemia = tested on: RPMI-8226 leukemia
BT-549 breast = tested on: BT-549 breast
SK-MEL-5 melanoma = tested on: SK-MEL-5 melanoma
TK-10 renal = tested on: TK-10 renal
SF-295 CNS = tested on: SF-295 CNS
UO-31 renal = tested on: UO-31 renal
SR leukemia = tested on: SR leukemia
T-47D breast = tested on: T-47D breast

Row | SMILES | TGI (DU-145 prostate) [µM] | TGI (HS 578T breast) [µM] | TGI (NCI-H460 lung) [µM] | TGI (HT29 colon) [µM] | TGI (SF-268 CNS) [µM] | TGI (SK-MEL-2 melanoma) [µM] | TGI (HL-60(TB) leukemia) [µM] | TGI (LOX IMVI melanoma) [µM] | TGI (HOP-62 NSCLC) [µM] | TGI (MDA-MB-435) [µM] | TGI (SW-620 colon) [µM] | TGI (786-0 renal) [µM] | TGI (RPMI-8226 leukemia) [µM] | TGI (BT-549 breast) [µM] | TGI (SK-MEL-5 melanoma) [µM] | TGI (TK-10 renal) [µM] | TGI (SF-295 CNS) [µM] | TGI (UO-31 renal) [µM] | TGI (SR leukemia) [µM] | TGI (T-47D breast) [µM]
1 | CN1C(=O)C(C(=O)Nc2ccccn2)C2C[C@@]1(C)Oc1ccccc12 (stereo partly drawn) | > 100 | > 100 | > 100 | > 100 | > 100 | > 100 | > 100 | > 100 | > 100 | > 100 | > 100 | > 100 | > 100 | > 100 | > 100 | > 100 | > 100 | > 100 |  | 
2 | COc1ccccc1/C=C1\S/C(=N/Nc2nc(C)c(C(C)=O)s2)NC1=O | > 100 | 70.1 | > 100 | > 100 | 96.6 | > 100 | 63.2 | > 100 | > 100 | > 100 | > 100 | > 100 | 89.4 |  | 47.7 | > 100 | > 100 | 90.4 | > 100 | 72.8
3 | COc1cc2c(oc(=O)c3cc4cc([Si](C)(C)C)oc4c(OC)c32)c2cccc(O)c12 |  |  | > 100 | > 100 | > 100 | > 100 | > 100 | > 100 | > 100 |  | > 100 | > 100 | > 100 |  | > 100 | > 100 | > 100 | > 100 | > 100 | 
4 | Cn1c(=O)cc2[nH]c3ccccc3n2c1=O |  |  | > 100 | > 100 | > 100 | > 100 | > 100 | 38.4 | > 100 |  | 61.3 | 62.9 | > 100 |  | > 100 | > 100 | > 100 | > 100 | > 100 | 
5 | ClCC[N-]CC[N-]CCCl.ClCC[N-]CC[N-]CCCl.[O-][Cl+3]([O-])([O-])O.[Zn+2] |  |  | > 71.2 | > 100 | 56.6 | 41.4 | > 100 | 57.2 | > 100 |  | 47.2 | 39.1 | > 100 |  | 56.1 | > 71.1 | > 100 | > 72.5 | > 100 | 
6 | COC(=O)c1c(-c2cc(OC)c(OC)c(OC)c2)oc2ccccc2c1=O |  |  | > 100 | > 100 |  | > 100 | > 100 | > 100 | > 100 |  | > 100 | > 100 | > 100 |  | > 100 | > 100 | > 100 | > 100 |  | 
7 | O=C1CCC2c3ccccc3NCN12 (stereo not drawn) | > 100 | > 100 | > 100 | > 100 | > 100 | > 100 | > 100 | > 100 | > 100 | > 100 | > 100 | > 100 | > 100 |  | > 100 | > 100 | > 100 | > 100 |  | > 100
8 | C=CCCCN1CCCC(C)C1=S (stereo not drawn) |  |  | > 100 | > 100 | > 100 | > 100 | > 100 | > 100 | > 100 |  | > 100 | > 100 | > 100 |  | > 100 | > 100 | > 100 | > 100 | > 100 | 
9 | COCN(C)c1nc(N(C)C)nc(N(C)C)n1 |  |  | > 100 | > 100 | > 100 | > 100 | > 100 | > 100 | > 100 |  | > 100 | > 100 | > 100 |  | > 100 | > 100 | > 100 | > 100 | > 100 | 
10 | COc1ccc(OC)c(NC(=O)C(=O)CC(=O)c2sc(-n3nc(-c4ccccc4)cc3-c3ccccc3)nc2C)c1 |  |  | > 100 | > 100 |  | > 100 | > 100 | > 100 | > 100 |  | > 100 | > 100 | > 100 |  |  | > 100 | > 100 | > 100 | > 100 | 
11 | CCN(CC)C(=S)SCC(=O)Nc1nc2c(s1)CCCC2 |  |  | > 100 | > 100 | > 100 | > 100 | 47.6 | > 100 | > 100 |  | > 100 | > 100 | > 100 |  | 49.7 | > 100 | > 100 | > 100 | 90.7 | 
12 | CC(C)(C)[C@H]1CO[C@]2(c3ccccc3)[C@@H]3C[C@@H]3C(=O)N12 |  |  | > 100 | > 100 | > 100 | > 100 | > 100 | > 100 | > 100 |  | > 100 | > 100 | > 100 |  | > 100 | > 100 | > 100 | > 100 | > 100 | 
13 | O=C(CSCC(=O)N/N=C\c1ccc(O)c(O)c1O)N/N=C\c1ccc(O)c(O)c1O | 29.1 | 80.8 | 56.3 | 54.9 | > 100 | 84.5 | 49.9 | 4.76 |  | 3.59 | 12.8 | 4.56 | 6.86 |  | 36.3 | 42 | 4.94 | 34.7 | 8.18 | 76.1
14 | CCOC(=O)/C(C(=S)NCc1ccccc1)=C(/N)N1CCCC1 | > 100 | > 100 | > 100 | > 100 | > 100 | > 100 | > 100 | > 100 | > 100 | > 100 | > 100 | > 100 | > 100 |  | > 100 | > 100 | > 100 | > 100 | > 100 | > 100

— PubChem BioAssay (NCI)
